Laboratory results from patent publication US9096615B2, “Bridged bicyclic amino thiazine dioxide compounds as inhibitors of beta-secretase and methods of use thereof” (AMGEN INC., priority 2013, dated 2015).
Like-named read-outs stand apart in the source and are kept apart here.

Key:
[1] = target: T1, Cathepsin D (Cat D) (Homo sapiens, UniProt P07339); test: In vitro enzymatic Cathepsin D (Cat D) FRET assay; assay type: biochemical; conditions: average IC50; first procedure; read-out: CatD IC50
T1 construct: made in house; host or cells: CHO cells
T1 sequence (P07339 65-412, species assumed): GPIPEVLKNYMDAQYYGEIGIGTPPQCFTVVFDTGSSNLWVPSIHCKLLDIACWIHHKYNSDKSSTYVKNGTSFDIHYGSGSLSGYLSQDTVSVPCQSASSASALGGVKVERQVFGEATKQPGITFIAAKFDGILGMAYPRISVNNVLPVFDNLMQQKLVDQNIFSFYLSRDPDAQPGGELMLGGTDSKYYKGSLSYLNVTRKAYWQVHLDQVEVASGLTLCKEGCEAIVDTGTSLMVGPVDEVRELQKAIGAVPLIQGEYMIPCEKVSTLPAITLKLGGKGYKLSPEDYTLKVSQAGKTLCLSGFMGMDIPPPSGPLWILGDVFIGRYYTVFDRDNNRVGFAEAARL
How it was run: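 Recombinant human Cat D expressed in CHO cells, 9 nM, pre-incubated 1 h with inhibitor in 0.05 M citrate pH 3.5, 10% DMSO, 5 mM CHAPS. Reaction started with 20 nM FRET peptide substrate, run 1 h, stopped with Tris to neutral pH; fluorescence read at ex 500/em 580 nm.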

[2] = target: BACE1 (Homo sapiens, UniProt P56817); test: In vitro enzymatic BACE FRET assay; assay type: biochemical; conditions: average IC50; read-out: BACE1 Enzyme assay IC50
Chain of BACE1 (P56817 46-501, species assumed): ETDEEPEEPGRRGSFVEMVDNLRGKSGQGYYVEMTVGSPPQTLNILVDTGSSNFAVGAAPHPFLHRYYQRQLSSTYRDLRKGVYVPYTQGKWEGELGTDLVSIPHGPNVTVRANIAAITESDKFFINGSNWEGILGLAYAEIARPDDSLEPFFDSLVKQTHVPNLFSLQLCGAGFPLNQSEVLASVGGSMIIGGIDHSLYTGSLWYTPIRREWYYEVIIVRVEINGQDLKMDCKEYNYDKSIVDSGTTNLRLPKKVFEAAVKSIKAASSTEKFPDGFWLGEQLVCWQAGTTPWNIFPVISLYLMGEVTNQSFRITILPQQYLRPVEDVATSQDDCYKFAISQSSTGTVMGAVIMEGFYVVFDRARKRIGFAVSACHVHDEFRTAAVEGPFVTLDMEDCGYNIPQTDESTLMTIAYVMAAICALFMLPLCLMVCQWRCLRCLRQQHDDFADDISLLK
How it was run: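 BACE (0.2 nM) pre-incubated 1 h with serially diluted inhibitor in 0.05 M acetate pH 4.2, 10% DMSO, 100 uM genapol; 50 nM FRET peptide substrate added, 1 h incubation. Stopped with Tris to neutral pH; fluorescence read (ex 488, […]).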

[3] = tested on: Abeta 40; test: In vivo inhibition of beta-secretase: percent Abeta 40 reduction in CSF and brain; set-up: species or system rat; conditions: after 4 hrs; for inhibition in vivo at 10 mg/kg: 10 mpk
From the text: In Vivo Inhibition of Beta-Secretase
Several animal models, including mouse, rat, dog, and monkey, may be used to screen for inhibition of beta-secretase activity in vivo following administration of a test compound sample. Animals used in this invention can be wild type, transgenic, or gene knockout animals. For example, the Tg2576 mouse model, prepared and conducted as described in Hsiao et al., 1996, Science 274, 99-102, and other non-transgenic or gene knockout animals are useful to analyze in vivo inhibition of Amyloid beta peptide (Abeta) production in the presence of inhibitory test compounds. Generally, 2 to 18 month old Tg2576 mice, gene knockout mice or non-transgenic animals are administered test compounds formulated in vehicles, such as cyclodextran, phosphate buffers, hydroxypropyl methylcellulose or other suitable vehicles. One to twenty-four hours following the administration of compound, animals are sacrificed, and brains as well as cerebrospinal fluid (CSF) and plasma are removed for analysis of A-beta levels and drug or test compound concentrations (Dovey et al., 2001, Journal of Neurochemistry, 76, 173-181) Beginning at time 0, animals are administered by oral gavage, or other means of delivery such as intravenous injection, an inhibitory test compound of up to 100 mg/kg in a standard, conventional formulation, such as 2% hydroxypropyl methylcellulose, 1% Tween80. A separate group of animals receive 2% hydroxypropyl methylcellulose, 1% Tween80 alone, containing no test compound, and serve as a vehicle-control group. At the end of the test period, animals are sacrificed and brain tissues, plasma or cerebrospinal fluid are collected. Brains are either homogenized in 10 volumes (w/v) of 0.2% diethylamine (DEA) in 50 mM NaCl (Best et al., 2005, Journal of Pharmacology and Experimental Therapeutics, 313, 902-908), or in 10 volumes of 0.5% TritonX-100 in Tris-buffered saline (pH at about 7.6). Homogenates are centrifuged at 355,000 g, 4° C. for 30 minutes. CSF or brain supernatants are then analyzed for the presence of A-beta peptide by specific sandwich ELISA assays based on ECL (Electrochemiluminescence) technology. For example, rat Abeta40 is measured using biotinylated-4G8 (Signet) as a capture antibody and Fab40 (an in-house antibody specific to the C-terminal of Abeta40) as a detection antibody. For example, 4 hours after administration of 30 mg/kg oral dose of the test compound in 2% hydroxypropyl methylcellulose, 1% Tween80 (pH2.2) to 200 g male Sprague Dawley rats, amyloid beta peptide levels are measured for reduction by X % and Y % in cerebrospinal fluid and brain, respectively, when compared to the levels measured in the vehicle-treated or control […].
Actual vehicles used: Oral: 2% HPMC, 1% Tween80, pH 2.2
• IV: 5% EtOH, 45% Propylene glycol in 5% Dextrose
The compounds of the invention may be shown to reduce the formation and/or deposition of amyloid beta peptide in the cerebrospinal fluid (CSF) as well as in the brain of a mouse or rat at either 3 mpk, 10 mpk or 30 mpk (mpk=mg compound per kg weight of the animal) dosing concentrations after 4 hrs.

[4] = Abeta 40, rat CSF, read-out: % reduction of rat CSF levels at 10 pmk
[5] = Abeta 40, rat brain, read-out: % reduction of rat brain levels at 10 mpk

Structure (SMILES)	IC50 [1] [µM]	IC50 [2] [µM]	inhibition in vivo at 10 mg/kg [3, 4] [%]	inhibition in vivo at 10 mg/kg [3, 5] [%]	% reduction of rat CSF levels (3 mpk) ([3]; Abeta 40, rat CSF, 3 mpk)	% reduction of rat brain levels (3 mpk) ([3]; Abeta 40, rat brain, 3 mpk)
COc1cnc2c(Nc3ccc(F)c([C@@]4(C)N=C(N)[C@@]5(C)CC[C@@H]4S5(=O)=O)c3)ncc(F)c2c1 [Example 78, N-(3-((1S,2R,5R)-4-amino-2,5-dimethyl-8,8-dioxido-8-thia-3-azabicyclo[3.2.1]oct-3-en-2-yl)-4-fluorophenyl)-5-fluoro-3-methoxy-1,7-naphthyridin-8-amine]	3240	0.003	52	46	–	–
C#CCOc1ccc(C(=O)Nc2ccc(F)c([C@@]3(C)N=C(N)[C@@]4(CF)CC[C@@H]3S4(=O)=O)c2)nc1 [Example 52, N-(3-((1S,2R,5R)-4-amino-5-(fluoromethyl)-2-methyl-8,8-dioxido-8-thia-3-azabicyclo[3.2.1]oct-3-en-2-yl)-4-fluorophenyl)-5-(2-propyn-1-yloxy)-2-pyridinecarboxamide]	811	0.001	67	62	–	–
COc1cnc2c(Nc3ccc(F)c([C@@]4(C)N=C(N)[C@@]5(CF)CC[C@@H]4S5(=O)=O)c3)nccc2n1 [Example 41, N-(3-((1S,2R,5R)-4-amino-5-(fluoromethyl)-2-methyl-8,8-dioxido-8-thia-3-azabicyclo[3.2.1]oct-3-en-2-yl)-4-fluorophenyl)-2-methoxypyrido[3,4-b]pyrazin-5-amine]	867	0.009	76	62	–	–
COc1cnc2c(Nc3ccc(F)c([C@@]4(C)N=C(N)[C@@]5(C)CC[C@@H]4S5(=O)=O)c3)nccc2n1 [Example 80, N-(3-((1S,2R,5R)-4-amino-2,5-dimethyl-8,8-dioxido-8-thia-3-azabicyclo[3.2.1]oct-3-en-2-yl)-4-fluorophenyl)-2-methoxypyrido[3,4-b]pyrazin-5-amine]	> 400	0.008	72	63	–	–
COc1cnc2c(Nc3ccc(F)c([C@@]4(C)N=C(N)[C@@]5(C)CC[C@@H]4S5(=O)=O)c3)ncnc2c1 [Example 132, N-(3-((1S,2R,5R)-4-amino-2,5-dimethyl-8,8-dioxido-8-thia-3-azabicyclo[3.2.1]oct-3-en-2-yl)-4-fluorophenyl)-7-methoxypyrido[3,2-d]pyrimidin-4-amine]	965	0.006	70	50	–	–
Cc1cc(C#N)cnc1C(=O)Nc1ccc(F)c([C@@]2(C)N=C(N)[C@@]3(CF)CC[C@@H]2S3(=O)=O)c1 [Example 96, N-(3-((1S,2R,5R)-4-amino-5-(fluoromethyl)-2-methyl-8,8-dioxido-8-thia-3-azabicyclo[3.2.1]oct-3-en-2-yl)-4-fluorophenyl)-5-cyano-3-methyl-2-pyridinecarboxamide]	733	0.002	–	–	60 (3 mpk) %	39 (3 mpk) %
C#CCOc1cnc(C(=O)Nc2ccc(F)c([C@@]3(C)N=C(N)[C@@]4(CF)CC[C@@H]3S4(=O)=O)c2)c(C)n1 [Example 59, N-(3-((1S,2R,5R)-4-amino-5-(fluoromethyl)-2-methyl-8,8-dioxido-8-thia-3-azabicyclo[3.2.1]oct-3-en-2-yl)-4-fluorophenyl)-3-methyl-5-(2-propyn-1-yloxy)-2-pyrazinecarboxamide]	837	0.001	80	76	–	–

Second part, led by results:

IC50 [1] [µM]	IC50 [2] [µM]	Structure (SMILES)	inhibition in vivo at 10 mg/kg [3, 4] [%]	inhibition in vivo at 10 mg/kg [3, 5] [%]	% reduction of rat CSF levels (3 mpk) ([3]; Abeta 40, rat CSF, 3 mpk)	% reduction of rat brain levels (3 mpk) ([3]; Abeta 40, rat brain, 3 mpk)
717	0.0005	CC#CCOc1cnc(C(=O)Nc2ccc(F)c([C@@]3(C)N=C(N)[C@@]4(C)CC[C@@H]3S4(=O)=O)c2)cn1 [Example 82, N-(3-((1S,2R,5R)-4-amino-2,5-dimethyl-8,8-dioxido-8-thia-3-azabicyclo[3.2.1]oct-3-en-2-yl)-4-fluorophenyl)-5-(2-butyn-1-yloxy)-2-pyrazinecarboxamide]	71	56	–	–
337	0.001	C[C@]1(c2cc(Nc3nccc4cc(C#N)cnc34)ccc2F)N=C(N)[C@@]2(CF)CC[C@@H]1S2(=O)=O [Example 100, 8-((3-((1S,2R,5R)-4-amino-5-(fluoromethyl)-2-methyl-8,8-dioxido-8-thia-3-azabicyclo[3.2.1]oct-3-en-2-yl)-4-fluorophenyl)amino)-1,7-naphthyridine-3-carbonitrile]	67	59	–	–
359	0.007	COc1cnc2c(Nc3ccc(F)c([C@@]4(C)N=C(N)[C@@]5(CF)CC[C@@H]4S5(=O)=O)c3)ncnc2c1 [Example 97, N-(3-((1S,2R,5R)-4-amino-5-(fluoromethyl)-2-methyl-8,8-dioxido-8-thia-3-azabicyclo[3.2.1]oct-3-en-2-yl)-4-fluorophenyl)-7-methoxypyrido[3,2-d]pyrimidin-4-amine]	75	76	–	–
317	0.011	C[C@]1(c2cc(Nc3ncnc4cc(C(F)(F)F)cnc34)ccc2F)N=C(N)[C@@]2(C)CC[C@@H]1S2(=O)=O [Example 106, N-(3-((1S,2R,5R)-4-amino-2,5-dimethyl-8,8-dioxido-8-thia-3-azabicyclo[3.2.1]oct-3-en-2-yl)-4-fluorophenyl)-7-(trifluoromethyl)pyrido[3,2-d]pyrimidin-4-amine]	59	29	–	–
650	0.008	C[C@]1(c2cc(Nc3ncnc4cc(C#N)cnc34)ccc2F)N=C(N)[C@@]2(CF)CC[C@@H]1S2(=O)=O [Example 40, 4-((3-((1S,2R,5R)-4-amino-5-(fluoromethyl)-2-methyl-8,8-dioxido-8-thia-3-azabicyclo[3.2.1]oct-3-en-2-yl)-4-fluorophenyl)amino)pyrido[3,2-d]pyrimidine-7-carbonitrile]	59	24	–	–
451	0.004	Cc1cc(OC(F)F)cnc1C(=O)Nc1ccc(F)c([C@@]2(C)N=C(N)[C@@]3(CF)CC[C@@H]2S3(=O)=O)c1 [Example 102, N-(3-((1S,2R,5R)-4-amino-5-(fluoromethyl)-2-methyl-8,8-dioxido-8-thia-3-azabicyclo[3.2.1]oct-3-en-2-yl)-4-fluorophenyl)-5-(difluoromethoxy)-3-methyl-2-pyridinecarboxamide]	67	68	–	–
570	0.003	C[C@]1(c2cc(NC(=O)c3ccc(Cl)cn3)ccc2F)N=C(N)[C@@]2(CF)CC[C@@H]1S2(=O)=O [Example 77, N-(3-((1S,2R,5R)-4-amino-5-(fluoromethyl)-2-methyl-8,8-dioxido-8-thia-3-azabicyclo[3.2.1]oct-3-en-2-yl)-4-fluorophenyl)-5-chloro-2-pyridinecarboxamide]	77	67	–	–
